Laboratory results: the supplement of paper PMC12317010
Counter-ions that a name gives are not always drawn.

Experiment: collision cross section in nitrogen (drift tube, single-field); higher = larger gas-phase ion size
[1] = ion type: [M+Na], ion source: ESI, ion mode: Positive
[2] = ion type: [M-H], ion source: ESI, ion mode: Negative
[3] = ion type: [M+H], ion source: APCI, ion mode: Positive
[4] = ion type: [M+H], ion source: ESI, ion mode: Positive
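Also: chemical standards at 10 µM analysed by drift tube IMS-QTOF MS in about 3.95 torr nitrogen, mean of duplicate injections differing ≤1%, mass error below 10 ppm.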

| SMILES | collision cross section in nitrogen [1] | collision cross section in nitrogen [2] | collision cross section in nitrogen [3] | collision cross section in nitrogen [4] | other results |
| --- | --- | --- | --- | --- | --- |
| CCCCCCCCCCCCCOC(=O)c1ccccc1C(=O)OCCCCCCCCCCCCC [Ditridecyl phthalate (mixture of branched chain isomers)] | 244.3 Å² |  |  |  |  |
| C[C@H]1CCCC(=O)CCC/C=C/c2cc(O)cc(O)c2C(=O)O1 [Zearalenone] |  | 177.5 Å² |  |  |  |
| Cc1cccc(Nc2cc(Cl)nc(SCC(=O)O)n2)c1C [[4-Chloro-6-(2,3-xylidino)-2-pyrimidinylthio]acetic acid] | 178.2 Å² | 171 Å² | 175.6 Å² | 175.5 Å² |  |
| CCCCC(O)(Cn1cncn1)c1ccc(Cl)cc1Cl (configuration not stated) [Hexaconazole] | 187 Å² |  | 174.6 Å² | 173.5 Å² |  |
| c1ccc(-c2nc3ccccc3[nH]2)cc1 [2-Phenylbenzimidazole] |  | 142.6 Å² | 142.8 Å² | 143 Å² |  |
| CCOc1nc2cccc(C(=O)OC(C)OC(=O)OC3CCCCC3)c2n1Cc1ccc(-c2ccccc2-c2nnn[nH]2)cc1 (configuration not stated) [Candesartan cilexetil] | 252.1 Å² | 244 Å² | 241.9 Å² | 242.2 Å² |  |
| CC(C)(C)c1cc([N+](=O)[O-])cc(C(C)(C)C)c1O [2,6-Di-tert-butyl-4-nitrophenol] |  | 162.2 Å² |  |  |  |
| CC(CN1c2ccccc2Sc2ccccc21)N(C)C (configuration not stated) [Promethazine hydrochloride] | 172.5 Å² |  | 163.3 Å² | 163.7 Å² |  |
| Cc1c[nH]c(=O)[nH]c1=O [Thymine] |  | 121 Å² |  |  |  |
| CC(C)COC(=O)c1ccccc1C(=O)OCC(C)C [Diisobutyl phthalate] | 181.8 Å² |  |  |  |  |
| CCCCC(CC)C(=O)OCCOCCOCCOC(=O)C(CC)CCCC (configuration not stated) [Triethylene glycol bis(2-ethylhexanoate)] | 207.3 Å² |  |  |  |  |
| CCCCC(CC)C(=O)O (configuration not stated) [Potassium 2-ethylhexanoate] |  | 137.8 Å² |  |  |  |
| OC[C@@H](O)[C@@H](O)[C@H](O)[C@@H](O)CO [D-Glucitol] | 143.4 Å² | 132.3 Å² |  |  |  |
| CCN1CCC2(CC1)COc1cc3c(cc12)N(C(=O)c1ccc(-c2ccc(-c4nnc(C)o4)cc2C)cc1)CC3 | 264.1 Å² |  | 229.6 Å² | 229.1 Å² |  |
| c1ccc2c(c1)ccc1cc3c(ccc4ccccc43)cc12 [Dibenz[a,h]anthracene] |  |  |  |  | collision cross section in nitrogen (ion type: [M+], ion source: APCI, ion mode: Positive): 160 Å² |
| CCC1(c2ccccc2)C(=O)N=C(O)NC1=O (configuration not stated) [Phenobarbital sodium] |  | 150.4 Å² |  |  |  |
| c1ccc(CN(Cc2ccccc2)Cc2ccccc2)cc1 [Tribenzylamine] |  |  | 169.1 Å² | 169.2 Å² |  |
| Oc1ccc(C2COc3cc(O)ccc3C2)cc1 (racemic) [(R,S)-Equol] |  | 159.6 Å² |  |  |  |
| C=CC(=O)NCNC(=O)C=C [N,N'-Methylenebisacrylamide] | 138.1 Å² |  |  |  |  |
| CN(C)c1ccc(Cc2ccc(N(C)C)cc2)cc1 [4,4'-Methylenebis(N,N-dimethylaniline)] |  |  | 175.3 Å² | 174.8 Å² |  |
| O=C1NS(=O)(=O)c2ccccc21 [Saccharin] |  | 131.1 Å² |  |  |  |

| SMILES | collision cross section in nitrogen [1] | collision cross section in nitrogen [2] | collision cross section in nitrogen [3] | collision cross section in nitrogen [4] | other results |
| --- | --- | --- | --- | --- | --- |
| COc1ccc(-n2nc(C(F)F)cc2-c2ccc(S(C)=O)cc2)cc1 (configuration not stated) [Difpas-pyrazole] |  |  | 187.8 Å² | 187.4 Å² |  |
| CNC(=O)ON=C(CSC)C(C)(C)C | 160.6 Å² |  |  |  |  |
| CN(C)c1ccc(N=O)cc1 [N,N-Dimethyl-4-nitrosoaniline] |  |  | 128.7 Å² | 128.4 Å² |  |
| Nc1ccc(N=Nc2ccc(-c3ccc(N=Nc4c(S(=O)(=O)O)cc5cc(S(=O)(=O)O)c(N=Nc6ccccc6)c(O)c5c4N)cc3)cc2)c(N)c1 [C.I. Direct Black 38] |  | 304.4 Å² |  | 311 Å² |  |
| N#CCC#N [Propanedinitrile] |  | 103.8 Å² |  |  |  |
| CC(C)CC(C)(c1ccc(O)cc1)c1ccc(O)cc1 [4,4'-(4-Methylpentane-2,2-diyl)diphenol] |  | 175.3 Å² |  |  |  |
| CC1(C)CCC(Cc2ccc(Cl)cc2)C1(O)Cn1cncn1 (configuration not stated) [Metconazole] | 176.1 Å² |  | 169.3 Å² | 169.1 Å² |  |
| COCN(COC)c1nc(N(COC)COC)nc(N(COC)COC)n1 [Hexa(methoxymethyl)melamine] | 194.1 Å² |  |  |  |  |
| CCC(CC)Nc1ccc(C)c(C)c1 [N-(1-Ethylpropyl)-3,4-xylidine] | 151.1 Å² |  |  |  |  |
| CCCCN(CCCC)CCCCCCN(CCCC)CCCC [N,N,N',N'-Tetrabutyl-1,6-hexanediamine] |  |  |  | 193.6 Å² |  |
| Cc1cc(C(C)(C)c2ccc(O)c(C)c2)ccc1O [3,3'-Dimethylbisphenol A] |  | 172.9 Å² |  |  |  |
| O=C(N[C@@H](c1ccccc1)[C@@H]1CCCCN1)c1cccc(C(F)(F)F)c1Cl | 200.2 Å² | 191.6 Å² | 190.3 Å² | 190.4 Å² |  |
| CCSCc1ccccc1OC(=O)NC [Ethiofencarb] | 153.7 Å² |  |  |  |  |
| COCC(=O)N(c1c(C)cccc1C)C(C)C(=O)OC (configuration not stated) [Metalaxyl] | 169.4 Å² |  | 160.5 Å² | 160.8 Å² |  |
| O=S(=O)(O)c1cccc2ccccc12 [Sodium 1-naphthalenesulfonate] |  | 141.6 Å² |  |  |  |
| Oc1ccc2c(c1)Cc1ccccc1-2 [2-Hydroxyfluorene] |  | 141.5 Å² |  |  |  |
| CC(=O)Nc1ccc(C(=O)CCl)cc1 [4'-(Chloroacetyl)acetanilide] |  | 144.9 Å² |  |  |  |
| O=C(O)c1cccc(C(F)(F)F)c1 [3-(Trifluoromethyl)benzoic acid] |  | 132.4 Å² |  |  |  |
| c1ccc2cnccc2c1 [Isoquinoline] |  |  | 122.3 Å² |  |  |
| O=C(OCCOCCOCCOC(=O)c1ccccc1)c1ccccc1 [Ethylenebis(oxyethylene) dibenzoate] | 189.7 Å² |  |  |  |  |
| CCCCCOC(=O)COc1cc(N2C(=O)C3=C(CCCC3)C2=O)c(F)cc1Cl [Flumiclorac-pentyl] | 209.5 Å² | 196.2 Å² |  |  |  |

| SMILES | collision cross section in nitrogen [1] | collision cross section in nitrogen [2] | collision cross section in nitrogen [3] | collision cross section in nitrogen [4] | other results |
| --- | --- | --- | --- | --- | --- |
| CCn1nc(Cc2ccccc2)cc1C1CCN(C[C@H]2C[C@H](N(C)[C@@H](C(=O)O)C(C)C)C[C@@H]2c2cccc(F)c2)CC1 [MK-578] | 241.9 Å² | 247.7 Å² | 243.1 Å² | 243.4 Å² |  |
| CCN(CC)c1ccccc1 [N,N-Diethylaniline] | 132.8 Å² |  |  |  |  |
| COC(=O)c1ccccc1S(=O)(=O)NC(=O)Nc1nc(OC(F)F)cc(OC(F)F)n1 [Primisulfuron-methyl] | 199.7 Å² |  |  |  |  |
| CCCCCCCCCCC=CC1CC(=O)OC1=O (configuration not stated) [3-(Dodecenyl)dihydro-2,5-furandione] |  | 170.1 Å² |  |  |  |
| CN1CCC[C@H]1c1cccnc1 [Nicotine sulfate (2:1)] |  |  | 137 Å² | 137.7 Å² |  |
| NNC(=O)c1ccncc1 [Isoniazid] |  | 125.3 Å² |  |  |  |
| CCOP(=S)(OCC)Oc1nc(Cl)n(C(C)C)n1 [Isazofos] | 174.8 Å² |  |  | 166.9 Å² |  |
| COc1cc(C(C)C)c2c(c1)S(=O)(=O)N(COc1cc(=O)n3cccc(OCCN4CCCCC4)c3n1)C2=O | 230.1 Å² |  | 228 Å² | 226.9 Å² |  |
| Oc1ccc(-c2ccccc2)cc1 [4-Phenylphenol] |  | 139.3 Å² |  |  |  |
| CC(=O)[C@@]1(O)CC[C@H]2[C@@H]3CCC4=CC(=O)CC[C@]4(C)[C@H]3CC[C@@]21C [17alpha-Hydroxyprogesterone] |  | 184.4 Å² |  |  |  |
| N[C@@H](Cc1cc(I)c(Oc2cc(I)c(O)c(I)c2)c(I)c1)C(=O)O [Levothyroxine] |  |  |  | 213.4 Å² |  |
| CC(=O)CC(=O)Nc1ccccc1 [Acetoacetanilide] |  | 138 Å² |  |  |  |
| C#CCC1=C(C)C(OC(=O)C2C(C=C(C)C)C2(C)C)CC1=O (configuration not stated) [Prallethrin] | 182.8 Å² |  |  |  |  |
| CCSC(C)CC1CC(=O)C(C(CC)=NOC/C=C/Cl)=C(O)C1 (configuration not stated) [Clethodim] | 184.9 Å² | 184.6 Å² | 187.7 Å² | 187.7 Å² |  |
| CO[C@H]1/C=C/O[C@@]2(C)Oc3c(C)c(O)c4c(O)c(c(/C=N/N5CCN(C)CC5)c(O)c4c3C2=O)NC(=O)/C(C)=C\C=C\[C@H](C)[C@H](O)[C@@H](C)[C@@H](O)[C@@H](C)[C@H](OC(C)=O)[C@@H]1C [Rifampicin] | 279 Å² |  |  | 282.3 Å² |  |
| CCOc1ccc(NC(=O)CC(C)=O)cc1 [N-(4-Ethoxyphenyl)-3-oxobutanamide] | 167.3 Å² | 155.9 Å² | 154.6 Å² |  |  |
| Oc1ccccc1I [2-Iodophenol] |  | 121.9 Å² |  |  |  |
| Fc1ccc(Oc2ccnc3cc(Cl)cc(Cl)c23)cc1 [Quinoxyfen] |  |  | 165.8 Å² | 165.5 Å² |  |
| CCCCCCCCCCCCCCCC(=O)O [Hexadecanoic acid] |  | 169.2 Å² |  |  |  |
| CC1Cc2ccccc2N1NC(=O)c1ccc(Cl)c(S(N)(=O)=O)c1 (configuration not stated) [Indapamide] | 195.9 Å² | 186.6 Å² |  | 187.6 Å² |  |
| CC(=NNC(=O)Nc1cc(F)cc(F)c1)c1ncccc1C(=O)O [Diflufenzopyr] | 181.6 Å² |  |  |  |  |
